From patent EP0435946B1, “METHODS FOR MODIFYING THE BINDING OF CELL ADHESION RECEPTORS” (LA JOLLA CANCER RESEARCH FOUNDATION, priority 1988, dated 1990)

Tests used:
fibronectin receptor [1] = target: T1, fibronectin receptor (Homo sapiens, UniProt P05556+P08648); test: Attachment of fibronectin receptor liposomes to fibronectin-coated wells in the presence of cations; type: binding; parameters: from tissue; host or cells: human placenta; details: for fibronectin receptor liposome attachment, result in words: compared with Ca²⁺, Ca²⁺ and Mg²⁺, or absence of Ca²⁺ or Mg²⁺; for % Attachment: cations 1 mM, percentage of control attachment in 1 mM CaCl₂ and 1 mM MgCl₂, mean and standard error, three experiments
T1 sequence (P08648 42-894 limits assumed): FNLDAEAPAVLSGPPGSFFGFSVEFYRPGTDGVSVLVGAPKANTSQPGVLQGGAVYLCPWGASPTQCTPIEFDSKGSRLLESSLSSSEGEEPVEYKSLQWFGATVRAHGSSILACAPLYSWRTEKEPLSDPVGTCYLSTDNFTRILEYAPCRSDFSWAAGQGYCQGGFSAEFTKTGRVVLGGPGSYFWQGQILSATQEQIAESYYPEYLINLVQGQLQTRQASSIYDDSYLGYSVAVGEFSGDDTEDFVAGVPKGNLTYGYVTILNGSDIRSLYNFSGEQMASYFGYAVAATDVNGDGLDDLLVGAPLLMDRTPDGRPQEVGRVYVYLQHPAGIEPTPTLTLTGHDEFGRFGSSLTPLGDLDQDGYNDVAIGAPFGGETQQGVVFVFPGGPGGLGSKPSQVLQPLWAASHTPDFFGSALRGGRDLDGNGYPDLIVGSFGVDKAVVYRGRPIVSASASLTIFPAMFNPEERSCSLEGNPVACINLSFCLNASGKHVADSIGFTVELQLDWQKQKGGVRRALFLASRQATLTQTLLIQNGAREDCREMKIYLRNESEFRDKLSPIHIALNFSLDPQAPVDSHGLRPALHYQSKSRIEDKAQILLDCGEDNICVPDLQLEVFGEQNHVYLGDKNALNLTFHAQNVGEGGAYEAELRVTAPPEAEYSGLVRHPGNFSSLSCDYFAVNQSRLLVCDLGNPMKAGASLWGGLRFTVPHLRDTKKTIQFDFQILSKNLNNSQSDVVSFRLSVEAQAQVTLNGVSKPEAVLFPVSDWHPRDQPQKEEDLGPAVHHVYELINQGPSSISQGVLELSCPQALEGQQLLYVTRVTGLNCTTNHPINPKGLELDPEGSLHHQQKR
T1 sequence (P08648 895-1049 partner limits assumed): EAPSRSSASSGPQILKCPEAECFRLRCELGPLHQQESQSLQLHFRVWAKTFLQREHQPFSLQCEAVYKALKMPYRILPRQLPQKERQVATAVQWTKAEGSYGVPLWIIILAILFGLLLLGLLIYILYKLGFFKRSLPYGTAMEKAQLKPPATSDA
T1 sequence (P05556 21-798): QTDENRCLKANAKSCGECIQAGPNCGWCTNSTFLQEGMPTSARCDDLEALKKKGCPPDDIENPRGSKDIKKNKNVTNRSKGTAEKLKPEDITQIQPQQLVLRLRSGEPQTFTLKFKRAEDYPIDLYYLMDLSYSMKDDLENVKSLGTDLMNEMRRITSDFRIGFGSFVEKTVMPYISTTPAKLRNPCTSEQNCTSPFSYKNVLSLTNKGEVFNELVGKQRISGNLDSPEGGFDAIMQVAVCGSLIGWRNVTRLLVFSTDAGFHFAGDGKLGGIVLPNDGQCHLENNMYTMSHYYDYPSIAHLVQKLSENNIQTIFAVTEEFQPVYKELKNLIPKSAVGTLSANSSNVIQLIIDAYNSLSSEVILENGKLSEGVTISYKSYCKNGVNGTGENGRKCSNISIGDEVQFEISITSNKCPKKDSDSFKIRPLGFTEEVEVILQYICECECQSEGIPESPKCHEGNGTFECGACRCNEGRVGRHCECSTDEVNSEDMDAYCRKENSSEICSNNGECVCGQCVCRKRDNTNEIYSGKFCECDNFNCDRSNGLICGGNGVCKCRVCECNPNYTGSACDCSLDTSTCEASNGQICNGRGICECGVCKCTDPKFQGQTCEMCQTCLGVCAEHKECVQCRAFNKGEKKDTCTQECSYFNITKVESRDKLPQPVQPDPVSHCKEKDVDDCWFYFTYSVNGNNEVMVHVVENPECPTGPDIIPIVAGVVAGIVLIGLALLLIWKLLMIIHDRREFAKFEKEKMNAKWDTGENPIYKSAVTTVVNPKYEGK
Excerpt: The effect of cations on the binding of the fibronectin receptor to its ligand was studied by incorporating the receptor into liposomes and measuring receptor liposome attachment to a fibronectin-coated surface in the presence of various cations.
(§1) Fibronectin receptors were purified from human placenta by affinity chromatography on a 110 kDa chymotryptic fragment of fibronectin, according to the methods of Pytela et al., Cell 40:191 (1985), and Pytela et al., Meth. Enzymol. 144:475-489 (1987), with the following modifications. The 110 kDa fragment corresponds to the 120 kDa fragment described in Pytela et al. (1985), supra. […] Briefly, homogenized placental tissue was washed once with 2 volumes of cold TBS containing 1 mM CaCl₂, 1 mM MgCl₂ and 3 mM phenylmethyl sulfonyl fluoride (PMSF), centrifuged, and the pellet was extracted with 1 volume of cold TBS containing 100 mM octyl-β-D-glucopyranoside (Calbiochem, La Jolla, CA), and calcium, magnesium, and PMSF as in Pytela et al., (1985) supra. The clear extract was slowly applied at 4°C, first to a column of plain Sepharose, and then to 110 kDa fibronectin fragment-Sepharose. […] Bound receptor was eluted with the wash buffer containing 20 mM EDTA in place of calcium and magnesium. Eluted receptor was used immediately for the preparation of receptor liposomes or stored frozen. In some experiments, 1 mM MnCl₂ was substituted for CaCl₂ and MgCl₂ throughout the isolation procedure.
Aliquots of the receptor liposome preparation were mixed with the indicated cations (1 mM) and the attachment of the liposomes to microtiter wells coated with fibronectin was assayed. The results are expressed as a percentage of control attachment, which was measured in the presence of 1 mM CaCl₂ and 1 mM MgCl₂. Mean and standard error from three experiments are shown.

[2] = target: T2, Fibronectin receptor (FNR) (Homo sapiens, UniProt P05556+P08648); test: Inhibition by Gd3+ of fibronectin receptor liposome attachment; type: binding; details: for % Inhibition FNR: 1 mM CaCl₂ and 1 mM MgCl₂
T2 construct: from tissue; host or cells: human placenta
T2 sequence (P08648 42-894 limits assumed): as the sequence (P08648 42-894 limits assumed) above
T2 sequence (P08648 895-1049 partner limits assumed): as the sequence (P08648 895-1049 partner limits assumed) above
T2 sequence (P05556 21-798): as the sequence (P05556 21-798) above
Experimental: (§2) The ability of Gd³⁺ to inhibit the binding of integrins was assayed in the liposome attachment system. Fibronectin receptor (FNR) and vitronectin receptor (VNR) liposomes were prepared by dialysis against TBS containing 1 mM CaCl₂ and 1 mM MgCl₂. Aliquots of GdCl₃ were added to the liposomes at the start of the assay. […] Such situations include binding of inflammatory cells at the site of a tissue injury caused by, for example, an ischemic episode, such as is associated with a cardiac or brain infarct.

[3] = target: T3, vitronectin receptor (VNR) (Homo sapiens, UniProt P05106+P06756); test: Inhibition by Gd3+ of vitronectin receptor liposome attachment; type: binding; details: for % Inhibition VNR: 1 mM CaCl₂ and 1 mM MgCl₂
T3 construct: Vitronectin receptor was purified from human placenta; from tissue; host or cells: human placenta
T3 sequence (P06756 31-889 limits assumed): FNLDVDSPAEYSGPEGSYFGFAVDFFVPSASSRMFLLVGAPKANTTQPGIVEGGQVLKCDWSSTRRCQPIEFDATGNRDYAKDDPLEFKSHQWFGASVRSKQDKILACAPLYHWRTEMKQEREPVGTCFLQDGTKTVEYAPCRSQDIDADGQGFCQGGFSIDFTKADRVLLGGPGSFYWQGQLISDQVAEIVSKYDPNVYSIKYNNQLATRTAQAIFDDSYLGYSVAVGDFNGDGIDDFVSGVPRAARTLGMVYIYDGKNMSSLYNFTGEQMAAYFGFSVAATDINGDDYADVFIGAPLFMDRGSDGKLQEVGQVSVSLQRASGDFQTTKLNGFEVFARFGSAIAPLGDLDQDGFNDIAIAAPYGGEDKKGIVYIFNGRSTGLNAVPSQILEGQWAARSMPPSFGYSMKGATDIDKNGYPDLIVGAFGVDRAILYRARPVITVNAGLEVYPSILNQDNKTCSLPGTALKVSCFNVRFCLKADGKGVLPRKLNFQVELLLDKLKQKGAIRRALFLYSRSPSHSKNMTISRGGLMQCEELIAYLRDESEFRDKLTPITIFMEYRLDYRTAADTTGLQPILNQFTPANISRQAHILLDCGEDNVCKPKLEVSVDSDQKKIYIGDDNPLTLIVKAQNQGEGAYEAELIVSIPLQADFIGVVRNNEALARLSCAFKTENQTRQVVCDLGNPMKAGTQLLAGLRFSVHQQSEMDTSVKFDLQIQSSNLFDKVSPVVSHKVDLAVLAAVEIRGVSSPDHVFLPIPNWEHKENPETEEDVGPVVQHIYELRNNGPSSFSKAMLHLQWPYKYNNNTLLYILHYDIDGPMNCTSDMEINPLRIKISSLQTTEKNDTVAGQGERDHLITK
T3 sequence (P06756 891-1048 partner limits assumed): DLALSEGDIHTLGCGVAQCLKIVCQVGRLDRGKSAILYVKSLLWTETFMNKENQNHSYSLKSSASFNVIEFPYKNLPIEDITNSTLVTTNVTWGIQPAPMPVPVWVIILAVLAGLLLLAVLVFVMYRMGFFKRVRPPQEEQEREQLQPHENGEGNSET
T3 sequence (P05106 27-788): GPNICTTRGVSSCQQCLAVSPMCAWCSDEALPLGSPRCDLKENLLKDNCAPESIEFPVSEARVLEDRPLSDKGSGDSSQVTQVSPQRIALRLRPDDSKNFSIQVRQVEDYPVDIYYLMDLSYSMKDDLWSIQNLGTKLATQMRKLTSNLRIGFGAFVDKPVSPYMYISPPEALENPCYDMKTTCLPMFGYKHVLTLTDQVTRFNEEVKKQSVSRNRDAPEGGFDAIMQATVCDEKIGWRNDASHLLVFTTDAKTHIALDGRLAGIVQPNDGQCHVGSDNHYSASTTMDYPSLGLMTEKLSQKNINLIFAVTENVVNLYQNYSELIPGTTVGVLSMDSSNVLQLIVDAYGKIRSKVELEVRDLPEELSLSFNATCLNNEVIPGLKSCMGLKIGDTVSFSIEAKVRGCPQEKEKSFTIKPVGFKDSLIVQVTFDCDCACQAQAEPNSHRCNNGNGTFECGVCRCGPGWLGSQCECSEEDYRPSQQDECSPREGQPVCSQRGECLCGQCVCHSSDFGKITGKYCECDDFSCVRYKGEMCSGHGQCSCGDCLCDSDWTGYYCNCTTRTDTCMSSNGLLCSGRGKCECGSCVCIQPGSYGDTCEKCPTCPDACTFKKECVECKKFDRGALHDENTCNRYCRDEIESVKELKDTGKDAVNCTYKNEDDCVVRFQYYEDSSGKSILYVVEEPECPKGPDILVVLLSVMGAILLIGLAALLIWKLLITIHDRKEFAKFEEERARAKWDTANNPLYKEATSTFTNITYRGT
Experimental: as §2

Vitronectin receptor = target: T4, Vitronectin receptor (Homo sapiens, UniProt P05106+P06756); test: Vitronectin receptor liposome attachment to vitronectin; type: binding; details: a number of liposome attachment assays
T4 construct: Vitronectin receptor was purified from human placenta; from tissue; host or cells: human placenta
T4 sequence (P06756 31-889 limits assumed): as the sequence (P06756 31-889 limits assumed) above
T4 sequence (P06756 891-1048 partner limits assumed): as the sequence (P06756 891-1048 partner limits assumed) above
T4 sequence (P05106 27-788): as the sequence (P05106 27-788) above
Experimental: Vitronectin receptor was purified from human placenta as described in Example I for the fibronectin receptor, but a different affinity matrix containing the peptide Gly-Arg-Gly-Asp-Ser-Pro-Lys was employed. The peptide was synthesized with an Applied Biosystems Model 430A, according to the manufacturer's instructions. Vitronectin receptor was isolated according to the method of Example I in the presence of 1 mM Ca²⁺ and 1mM Mg²⁺ or in 1 mM Ca²⁺ alone. In a number of liposome attachment assays, Mn²⁺ enhanced the binding of this integrin to vitronectin by 20-50% over the binding measured in Ca²⁺ and Mg²⁺.

Type I collagen receptor = Type I collagen receptor liposome binding to collagen; parameters: species or system human
Excerpt: Type I collagen receptor was also isolated from placenta, employing the method given in Example I with the following modifications. Mn²⁺ was used in the chromatography buffers for this procedure, and the affinity matrix contained Type I collagen.

A375M cells [4] = test: In vitro wound model of cell migration on ligand-coated cell-free lanes; type: cell-based, human; details: 100 µM MnCl₂ in media with Ca²⁺ and Mg²⁺; spaces coated with fibronectin and Type IV collagen; versus controls
Experimental: An in vitro wounding assay was developed to test the effects of Mn²⁺ on cell migration into a wounded (cell free) area that was coated with various adhesion proteins. This assay allowed the determination of the specific ligands and the respective receptors that are involved in the migration process. More specifically, this assay was used to test cell migration on various substrates in the presence of Mn²⁺. A375M cells were grown to confluency in 6 well culture dishes (Corning, New York, NY). A specially designed comb which scratches out 4-2mm wide lanes was used to make a crossing pattern in the cell layer, removing the cells. The cell-free lanes were then coated for 1 hour at 37°C with one of the following ligands: fibronectin, vitronectin, Type I or Type IV collagen, bovine serum albumin or laminin. These proteins were dissolved in PBS at a concentration of 10µg/ml and then added directly to the wounded cell layer.
Standard Culture Media containing Ca²⁺ and Mg²⁺ and 100 µM MnCl₂ was added to the culture dishes while control dishes had the same media without Mn²⁺. Cell migration was monitored by visualization.

fibronectin receptor [5] = target: T1, fibronectin receptor; details: Mn²⁺ versus Ca²⁺/Mg²⁺
A375M cells [6] = tested on: A375M cells
fibronectin receptor [7] = target: T1, fibronectin receptor; test: Yield of fibronectin receptor from affinity chromatography on 110 kDa fibronectin fragment, densitometry of SDS-PAGE; parameters: from tissue; host or cells: human placenta
Experimental: as §1
Fibronectin receptor can be isolated by affinity chromatography on the 110 kDa fibronectin fragment (See Pytela, et al., (1985), (1987), supra). […]

fibronectin receptor [8] = target: T1, fibronectin receptor; test: Attachment of fibronectin receptor liposomes to fibronectin-coated wells in the presence of cations; type: binding; parameters: from tissue; host or cells: human placenta; details: for binding of fibronectin receptor liposomes to fibronectin, multiple of binding measured in Ca²⁺ alone: in 1mM Ca²⁺; for binding of fibronectin receptor liposomes to fibronectin, multiple of binding measured in Ca²⁺ alone / binding of fibronectin receptor liposomes to fibronectin, multiple of binding measured in Mg²⁺ alone: mean and standard error, two experiments; for binding of fibronectin receptor liposomes to fibronectin, multiple of binding measured in Mg²⁺ alone: in 1mM Mg²⁺

[Ba+2] [Ba²⁺]
fibronectin receptor liposome attachment, result in words (fibronectin receptor [1]): produced less attachment than Ca²⁺, but did support fibronectin receptor attachment above the level found in the absence of either Ca²⁺ or Mg²⁺

[Be+2] [Be²⁺]
fibronectin receptor liposome attachment, result in words (fibronectin receptor [1]): produced less attachment than Ca²⁺, but did support fibronectin receptor attachment above the level found in the absence of either Ca²⁺ or Mg²⁺

[Ca+2].[Cl-].[Cl-] [Ca²⁺, CaCl₂, reference compound]
% Attachment (fibronectin receptor [1]): 75 ± 10%

[Cd+2] [Cd²⁺]
% Attachment (fibronectin receptor [1]): 130 ± 30%
fibronectin receptor liposome attachment, result in words (fibronectin receptor [1]): increased the percentage of attachment above that obtained in the presence of Ca²⁺ and Mg²⁺

[Co+2] [Co²⁺]
% Attachment (fibronectin receptor [1]): 150 ± 13%
fibronectin receptor liposome attachment, result in words (fibronectin receptor [1]): increased the percentage of attachment above that obtained in the presence of Ca²⁺ and Mg²⁺

[Cu+2] [Cu²⁺]
fibronectin receptor liposome attachment, result in words (fibronectin receptor [1]): produced increased attachment above that found in the absence of Ca²⁺ or Mg²⁺ in at least one experiment

[Fe+2] [Fe²⁺]
fibronectin receptor liposome attachment, result in words (fibronectin receptor [1]): produced less attachment than Ca²⁺, but did support fibronectin receptor attachment above the level found in the absence of either Ca²⁺ or Mg²⁺

[Cl][Gd]([Cl])[Cl] [Gd³⁺, GdCl₃]
% Inhibition FNR ([2]; Gd³⁺ 0.1 mM): 8%
% Inhibition FNR ([2]; Gd³⁺ 0.3 mM): 61%
% Inhibition FNR ([2]; Gd³⁺ 1 mM): 91%
% Inhibition FNR ([2]; Gd³⁺ 3 mM): 87%
attachment of fibronectin receptor to its ligand, result in words ([2]; concentrations above 0.3 mM): significant decrease in attachment
% Inhibition VNR ([3]; Gd³⁺ 0.1 mM): 0%
% Inhibition VNR ([3]; Gd³⁺ 0.3 mM): 59%
% Inhibition VNR ([3]; Gd³⁺ 1 mM): 93%
% Inhibition VNR ([3]; Gd³⁺ 3 mM): 100%
attachment of vitronectin receptor to its ligand, result in words ([3]; concentrations above 0.3 mM): significant decrease in attachment
fibronectin receptor liposome attachment, result in words (fibronectin receptor [1]): produced increased attachment above that found in the absence of Ca²⁺ or Mg²⁺ in at least one experiment

[La+3] [La³⁺]
fibronectin receptor liposome attachment, result in words (fibronectin receptor [1]): produced increased attachment above that found in the absence of Ca²⁺ or Mg²⁺ in at least one experiment

[Cl-].[Cl-].[Mg+2] [Mg²⁺, MgCl₂, reference compound]
% Attachment (fibronectin receptor [1]): 110 ± 5%

[Cl][Mn][Cl] [Mn²⁺, MnCl₂]
enhancement of binding to vitronectin over the binding measured in Ca²⁺ and Mg²⁺ (Vitronectin receptor): 20-50%
binding of Type I collagen receptor liposomes to collagen, result in words (Type I collagen receptor): clear and specific binding to collagen
migration into cell-free spaces, result in words (A375M cells [4]): augmented migration
factor of increase of the relative affinity of the receptor for the fragment (fibronectin receptor [5]; ligand 110 kDa fibronectin fragment): 4.5
factor of increase of the relative receptor affinity for the peptide (fibronectin receptor [5]; ligand GRGDSP): 50
increase in invasion / migration of cells (A375M cells [6]; 100 µM MnCl₂, after 72 hours): 30%
effect on cell viability and migration (A375M cells [6]; concentrations higher than 100 µM): cell viability is affected and therefore migration is reduced
% Attachment (fibronectin receptor [1]): 210 ± 29%
binding of receptor isolated with Mn²⁺ in the liposome attachment assay, Mn²⁺ versus Ca²⁺/Mg²⁺ (fibronectin receptor [1]; receptor isolated with Mn²⁺): several times higher
yield of receptor with Mn²⁺ relative to Ca²⁺ and Mg²⁺ (fibronectin receptor [7]; 1 mM Mn²⁺ substituted for Ca²⁺/Mg²⁺, estimated by densitometry): four-fold higher
Receptor Peak Area (fibronectin receptor [7]; cations 1 mM in chromatography buffers, Coomassie blue gels scanned): 18.2
binding of fibronectin receptor liposomes to fibronectin, multiple of binding measured in Ca²⁺ alone (fibronectin receptor [8]; 0.01 mM Mn²⁺ added): 1.23 ± 0.66
binding of fibronectin receptor liposomes to fibronectin, multiple of binding measured in Mg²⁺ alone (fibronectin receptor [8]; 0.01 mM Mn²⁺ added): 0.97 ± 0.17
binding of fibronectin receptor liposomes to fibronectin, multiple of binding measured in Ca²⁺ alone (fibronectin receptor [8]; 0.1mM Mn²⁺ added): 4.41 ± 0.33
binding of fibronectin receptor liposomes to fibronectin, multiple of binding measured in Mg²⁺ alone (fibronectin receptor [8]; 0.1mM Mn²⁺ added): 2.04 ± 0.08
binding of fibronectin receptor liposomes to fibronectin, multiple of binding measured in Ca²⁺ alone (fibronectin receptor [8]; 1 mM Mn²⁺ added): 5.78 ± 0.47
binding of fibronectin receptor liposomes to fibronectin, multiple of binding measured in Mg²⁺ alone (fibronectin receptor [8]; 1 mM Mn²⁺ added): 3.12 ± 0.10
concentration at which liposome attachment was promoted (as low as) (fibronectin receptor [8]; cation titration, Figure 1): 3 µM

[Ni+2] [Ni²⁺]
% Attachment (fibronectin receptor [1]): 100 ± 12%
fibronectin receptor liposome attachment, result in words (fibronectin receptor [1]): as effective as the combination of Ca²⁺ and Mg²⁺

[Sr+2] [Sr²⁺]
fibronectin receptor liposome attachment, result in words (fibronectin receptor [1]): produced increased attachment above that found in the absence of Ca²⁺ or Mg²⁺ in at least one experiment

[Zn+2] [Zn²⁺]
attachment, % of the control value (fibronectin receptor [1]; one similar assay): 128%
